Measurements reported in patent publication US20250051357A1, “SOLID FORMS OF A GPR119 AGONIST AND PROCESSES FOR THE PREPARATION THEREOF” (MANKIND PHARMA LTD., priority 2023, published 2025).
“And” between values parts separate entries of the source, which are not always exact repeats. Equal entries are not always repeated.

Experiment: Particle size analysis, Malvern particle size analyzer (Mastersizer 3000)
Type: physicochemical
Conditions: particle size distribution d90 of the isolated batch; dispersant water, Tween-80 paste, Mie model
Method: Particle size analysis was performed using a Malvern particle size analyzer. (Mastersizer 3000, Malvern Instrument Ltd).
Weigh accurately 100 mg of sample in 100 ml beaker. Add 3 drops of Tween-80 and 1 mL of water and make a paste with the help of glass rod. Then add 10 ml water and sonicate externally for 10 seconds with continued shaking.

PSD (d90)	Structure (SMILES)
50-80 μm	CCc1cnc(N2CCC([C@H](C)Oc3nn4cc(-c5ccc(S(C)(=O)=O)cc5F)nc4s3)CC2)nc1 [amorphous Form, 2-((S)-1-(1-(5-ethyl-pyrimidin-2-yl)piperidin-4-yl)ethoxy)-6-(2-fluoro-4-(methylsulfonyl)phenyl) imidazo[2,1-b][1,3,4]thiadiazole]
30-60 μm	CCc1cnc(N2CCC([C@H](C)Oc3nn4cc(-c5ccc(S(C)(=O)=O)cc5F)nc4s3)CC2)nc1 [Form M-4, 2-((S)-1-(1-(5-ethyl-pyrimidin-2-yl)piperidin-4-yl)ethoxy)-6-(2-fluoro-4-(methylsulfonyl)phenyl) imidazo[2,1-b][1,3,4]thiadiazole]
84.9 μm and 62.4 μm and 106 μm	CCc1cnc(N2CCC([C@H](C)Oc3nn4cc(-c5ccc(S(C)(=O)=O)cc5F)nc4s3)CC2)nc1 [Form M-1, 2-((S)-1-(1-(5-ethyl-pyrimidin-2-yl)piperidin-4-yl)ethoxy)-6-(2-fluoro-4-(methylsulfonyl)phenyl) imidazo[2,1-b][1,3,4]thiadiazole]
99.8 μm	CCc1cnc(N2CCC([C@H](C)Oc3nn4cc(-c5ccc(S(C)(=O)=O)cc5F)nc4s3)CC2)nc1 [Form M-2, 2-((S)-1-(1-(5-ethyl-pyrimidin-2-yl)piperidin-4-yl)ethoxy)-6-(2-fluoro-4-(methylsulfonyl)phenyl) imidazo[2,1-b][1,3,4]thiadiazole]
